From ChEMBL document CHEMBL3751710, “Cyclic RGD peptidomimetics containing 4- and 5-amino-cyclopropane pipecolic acid (CPA) templates as dual αVβ3 and α5β1 integrin ligands” (Bioorg Med Chem, 2016)

Legend:
Integrin alpha-V/beta-3 = Integrin alpha-V/beta-3 (Homo sapiens, UniProt P05106+P06756); test: Binding affinity to integrin alphav/beta3 heterodimer in human M21 cells assessed as inhibition of integrin-mediated human M21 cell adhesion to vitronectin incubated for 30 mins in presence of MnCl2; type: cell-based
Integrin alpha-5/beta-1 = Integrin alpha-5/beta-1 (Homo sapiens, UniProt P05556+P08648); test: Binding affinity to integrin alpha5/beta1 heterodimer in human K562 cells assessed as inhibition of integrin-mediated human K562 cell adhesion to fibronectin incubated for 30 mins in presence of MnCl2; type: cell-based
Chain of Integrin alpha-5/beta-1 (P05556 21-798 limits assumed): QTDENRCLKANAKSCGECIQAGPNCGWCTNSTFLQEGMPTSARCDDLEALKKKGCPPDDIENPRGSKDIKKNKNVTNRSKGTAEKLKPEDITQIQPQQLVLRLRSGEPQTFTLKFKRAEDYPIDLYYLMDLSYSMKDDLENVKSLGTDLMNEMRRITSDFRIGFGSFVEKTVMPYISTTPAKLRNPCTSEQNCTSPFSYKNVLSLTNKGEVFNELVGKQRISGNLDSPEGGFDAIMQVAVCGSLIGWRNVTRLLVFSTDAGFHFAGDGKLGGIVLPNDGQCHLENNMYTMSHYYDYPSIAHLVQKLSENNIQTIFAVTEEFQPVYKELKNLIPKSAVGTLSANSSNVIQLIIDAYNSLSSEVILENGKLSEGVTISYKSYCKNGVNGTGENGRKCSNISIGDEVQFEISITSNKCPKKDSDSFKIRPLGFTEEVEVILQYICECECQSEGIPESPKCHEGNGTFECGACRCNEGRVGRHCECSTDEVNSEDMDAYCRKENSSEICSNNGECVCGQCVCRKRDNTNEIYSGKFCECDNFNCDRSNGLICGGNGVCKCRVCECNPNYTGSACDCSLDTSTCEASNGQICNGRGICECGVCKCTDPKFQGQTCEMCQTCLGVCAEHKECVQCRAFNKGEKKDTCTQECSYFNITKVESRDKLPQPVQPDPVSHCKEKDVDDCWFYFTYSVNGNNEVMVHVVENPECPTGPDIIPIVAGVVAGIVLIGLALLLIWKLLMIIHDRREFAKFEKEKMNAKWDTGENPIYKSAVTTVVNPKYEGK
Chain of Integrin alpha-5/beta-1 (P08648 42-894 limits assumed): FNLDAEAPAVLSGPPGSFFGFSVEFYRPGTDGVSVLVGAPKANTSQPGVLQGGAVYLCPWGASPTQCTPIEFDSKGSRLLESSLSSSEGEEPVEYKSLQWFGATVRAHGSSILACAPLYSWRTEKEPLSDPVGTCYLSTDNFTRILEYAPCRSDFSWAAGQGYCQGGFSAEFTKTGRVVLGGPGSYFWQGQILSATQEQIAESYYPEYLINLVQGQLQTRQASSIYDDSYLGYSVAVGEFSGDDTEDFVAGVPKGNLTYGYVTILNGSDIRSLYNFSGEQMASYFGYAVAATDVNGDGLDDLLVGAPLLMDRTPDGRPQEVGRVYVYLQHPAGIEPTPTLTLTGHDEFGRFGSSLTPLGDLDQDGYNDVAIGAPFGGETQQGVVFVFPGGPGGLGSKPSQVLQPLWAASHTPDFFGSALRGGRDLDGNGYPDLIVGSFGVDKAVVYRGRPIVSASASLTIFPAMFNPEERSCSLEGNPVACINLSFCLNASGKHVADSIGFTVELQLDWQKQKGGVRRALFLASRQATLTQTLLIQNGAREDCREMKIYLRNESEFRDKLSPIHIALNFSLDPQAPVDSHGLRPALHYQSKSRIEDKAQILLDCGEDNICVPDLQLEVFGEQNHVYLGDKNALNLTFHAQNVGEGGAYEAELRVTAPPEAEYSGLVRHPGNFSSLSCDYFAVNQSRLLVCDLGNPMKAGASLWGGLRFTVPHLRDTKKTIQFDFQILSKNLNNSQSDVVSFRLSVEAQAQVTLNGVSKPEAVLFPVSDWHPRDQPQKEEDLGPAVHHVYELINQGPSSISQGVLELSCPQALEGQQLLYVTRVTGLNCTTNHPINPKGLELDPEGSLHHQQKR
Chain of Integrin alpha-5/beta-1 (P08648 895-1049 limits assumed): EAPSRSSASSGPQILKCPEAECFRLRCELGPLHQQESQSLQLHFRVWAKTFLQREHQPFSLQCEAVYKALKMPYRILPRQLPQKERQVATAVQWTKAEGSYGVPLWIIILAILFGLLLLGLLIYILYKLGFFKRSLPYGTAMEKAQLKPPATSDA

Chain of Integrin alpha-V/beta-3 (P05106 27-788 limits assumed): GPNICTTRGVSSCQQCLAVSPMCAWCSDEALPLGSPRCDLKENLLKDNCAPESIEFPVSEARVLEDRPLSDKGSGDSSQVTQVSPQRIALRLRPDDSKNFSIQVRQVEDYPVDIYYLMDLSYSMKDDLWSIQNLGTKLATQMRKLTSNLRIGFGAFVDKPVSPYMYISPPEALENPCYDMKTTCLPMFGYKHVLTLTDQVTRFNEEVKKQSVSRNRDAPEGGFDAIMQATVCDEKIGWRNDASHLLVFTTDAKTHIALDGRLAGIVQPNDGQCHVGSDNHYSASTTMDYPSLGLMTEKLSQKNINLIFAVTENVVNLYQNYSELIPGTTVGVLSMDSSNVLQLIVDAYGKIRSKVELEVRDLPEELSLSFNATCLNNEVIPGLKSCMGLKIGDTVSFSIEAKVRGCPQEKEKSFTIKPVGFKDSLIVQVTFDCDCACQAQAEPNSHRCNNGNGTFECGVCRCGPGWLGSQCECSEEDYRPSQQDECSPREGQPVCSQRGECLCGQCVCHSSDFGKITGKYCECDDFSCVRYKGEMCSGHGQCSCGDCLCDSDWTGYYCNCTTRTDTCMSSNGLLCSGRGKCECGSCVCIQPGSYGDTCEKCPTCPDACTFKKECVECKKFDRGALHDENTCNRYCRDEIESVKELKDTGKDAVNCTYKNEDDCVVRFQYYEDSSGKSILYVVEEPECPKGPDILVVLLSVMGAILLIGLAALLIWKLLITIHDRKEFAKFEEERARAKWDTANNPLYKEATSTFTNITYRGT
Chain of Integrin alpha-V/beta-3 (P06756 31-889 limits assumed): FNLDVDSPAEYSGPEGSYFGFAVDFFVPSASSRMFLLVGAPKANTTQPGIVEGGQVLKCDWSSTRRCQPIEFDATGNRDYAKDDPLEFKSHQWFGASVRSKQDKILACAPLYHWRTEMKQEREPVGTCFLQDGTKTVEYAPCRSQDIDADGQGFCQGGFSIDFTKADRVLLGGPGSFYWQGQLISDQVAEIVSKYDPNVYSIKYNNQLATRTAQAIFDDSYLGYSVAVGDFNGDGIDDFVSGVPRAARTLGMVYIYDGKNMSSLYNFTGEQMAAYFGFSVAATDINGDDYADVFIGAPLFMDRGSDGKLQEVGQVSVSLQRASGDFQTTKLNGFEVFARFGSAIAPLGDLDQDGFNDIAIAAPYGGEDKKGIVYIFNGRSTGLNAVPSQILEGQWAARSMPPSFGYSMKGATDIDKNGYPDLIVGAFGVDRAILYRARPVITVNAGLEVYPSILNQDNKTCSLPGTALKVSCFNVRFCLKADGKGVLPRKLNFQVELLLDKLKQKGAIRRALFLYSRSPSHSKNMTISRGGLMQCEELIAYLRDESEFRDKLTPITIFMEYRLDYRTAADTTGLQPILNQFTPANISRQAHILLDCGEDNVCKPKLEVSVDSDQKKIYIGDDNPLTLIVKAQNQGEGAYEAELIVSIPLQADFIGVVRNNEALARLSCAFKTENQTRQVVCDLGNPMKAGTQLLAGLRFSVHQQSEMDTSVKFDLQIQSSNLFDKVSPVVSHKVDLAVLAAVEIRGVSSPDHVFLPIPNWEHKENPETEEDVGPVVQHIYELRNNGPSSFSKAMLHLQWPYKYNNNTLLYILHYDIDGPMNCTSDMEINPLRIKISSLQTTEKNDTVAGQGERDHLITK
Chain of Integrin alpha-V/beta-3 (P06756 891-1048 limits assumed): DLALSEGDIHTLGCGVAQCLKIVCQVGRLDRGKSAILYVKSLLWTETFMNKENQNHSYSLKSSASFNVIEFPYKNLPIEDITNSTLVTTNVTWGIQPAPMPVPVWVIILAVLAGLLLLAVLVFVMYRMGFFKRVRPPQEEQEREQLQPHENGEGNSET

| SMILES | IC50 (Integrin alpha-V/beta-3) [nM] | IC50 (Integrin alpha-5/beta-1) [nM] |
| --- | --- | --- |
| COC(=O)N1C[C@H]2C[C@H]3C[C@]31C(=O)N[C@@H](CCCNC(=N)N)C(=O)NCC(=O)N[C@@H](CC(=O)O)C(=O)N2 | 34 | 15 |
| COC(=O)N1CC[C@H]2NC(=O)[C@H](CC(=O)O)NC(=O)CNC(=O)[C@H](CCCNC(=N)N)NC(=O)[C@@]13C[C@@H]23 | 2.4 | 26 |
